Measured values reported in patent US20200405697A1, “Antitumor Agent” (Taiho Pharmaceutical Co., Ltd, priority 2017, published 2020).

molecular target: T1, human RNR (histidine tagged human M1 and human M2 proteins) (Homo sapiens, UniProt P23921); assay: Human RNR inhibition effect (dCDP formation from CDP); assay type: biochemical; details: 10 μM CDP, 37° C. for 30 minutes, read-out: RNR inhibitory activity IC50
T1 construct: made in house; host or cells: Escherichia coli
T1 sequence (P23921 1-792): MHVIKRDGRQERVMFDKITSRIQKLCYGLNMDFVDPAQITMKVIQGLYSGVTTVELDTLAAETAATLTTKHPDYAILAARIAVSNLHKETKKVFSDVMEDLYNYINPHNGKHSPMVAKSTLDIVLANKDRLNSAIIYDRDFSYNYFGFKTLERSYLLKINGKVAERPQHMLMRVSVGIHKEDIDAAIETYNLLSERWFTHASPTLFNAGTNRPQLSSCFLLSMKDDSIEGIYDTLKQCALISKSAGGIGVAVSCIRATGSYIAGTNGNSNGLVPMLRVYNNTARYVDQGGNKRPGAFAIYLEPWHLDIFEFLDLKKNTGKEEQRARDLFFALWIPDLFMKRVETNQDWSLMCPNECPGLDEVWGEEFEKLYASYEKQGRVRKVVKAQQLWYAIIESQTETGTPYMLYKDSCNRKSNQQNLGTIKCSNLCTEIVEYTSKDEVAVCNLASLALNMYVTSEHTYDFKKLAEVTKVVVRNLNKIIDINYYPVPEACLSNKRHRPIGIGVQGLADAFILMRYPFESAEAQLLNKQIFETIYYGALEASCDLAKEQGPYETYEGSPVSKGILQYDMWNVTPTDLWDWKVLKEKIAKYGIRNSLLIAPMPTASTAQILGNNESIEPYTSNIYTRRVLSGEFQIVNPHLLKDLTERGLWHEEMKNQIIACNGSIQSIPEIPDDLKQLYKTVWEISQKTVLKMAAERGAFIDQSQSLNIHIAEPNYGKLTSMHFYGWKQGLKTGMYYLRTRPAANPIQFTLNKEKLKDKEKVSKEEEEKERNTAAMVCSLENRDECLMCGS
Method in brief: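 His-tagged human M1 (isoform 1) and N-terminal 59-aa-truncated M2 (isoform 2), E. coli-expressed, Ni-purified, preincubated 20 min with compound (1% DMSO). Reaction with 10 μM CDP, 2 mM ATP, 0.24 mM NADPH, 6 mM DTT, 4 mM Mg acetate, 100 mM KCl, 50 mM HEPES pH 7.2, 30 min at 37° C. dCDP formed quantified by reverse-phase HPLC after heat stop.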

Row | IC50 | SMILES
1 | 150 nM | COc1cc(Cl)cnc1S(=O)(=O)N[C@H](c1n[nH]c(=O)o1)[C@H](C)c1c(F)ccc(C)c1C [Example 112, 5-chloro-N-((1S,2R)-2-(6-fluoro-2,3-dimethylphenyl)-1-(5-oxo-4,5-dihydro-1,3,4-oxadiazol-2-yl)propyl)-3-methoxypyridine-2-sulfonamide]
2 | 60 nM | Cc1ccc(F)c([C@@H](C)[C@H](NS(=O)(=O)c2ccc(Cl)c(C(=O)N3CCOCC3)n2)c2n[nH]c(=O)o2)c1C [Example 113, 5-chloro-N-((1S,2R)-2-(6-fluoro-2,3-dimethylphenyl)-1-(5-oxo-4,5-dihydro-1,3,4-oxadiazol-2-yl)propyl)-6-(moipholine4-carbonyl)pyridine-2-sulfonamide]
3 | 60 nM | Cc1ccc(F)c([C@@H](C)[C@H](NS(=O)(=O)c2ccc(Cl)c(C(=O)N3CCCC3)n2)c2n[nH]c(=O)o2)c1C [Example 114, 5-chloro-N-((1S,2R)-2-(6-fluoro-2,3-dimethylphenyl)-1-(5-oxo-4,5-dihydro-1,3,4-oxadiazol-2-yl)propyl)-6-(pyrrolidine-1-carbonyl)pyridine-2-sulfonamide]
4 | 180 nM | Cc1ccc(F)c([C@@H](C)[C@H](NS(=O)(=O)c2ccc(Cl)c(C(=O)N3CCC4(CCC4)C3)n2)c2n[nH]c(=O)o2)c1C [Example 115, 5-chloro-N-((1S,2R)-2-(6-fluoro-2,3-dimethylphenyl)-1-(5-oxo-4,5-dihydro-1,3,4-oxadiazol-2-yl)propyl)-6-(6-azaspiro[3.4]octane-6-carbonyl)pyridine-2-sulfonamide]
5 | 30 nM | Cc1ccc(F)c([C@@H](C)[C@H](NS(=O)(=O)c2ccc(Cl)c(C(=O)N3CC4CCC(C3)O4)n2)c2n[nH]c(=O)o2)c1C [Example 117, 6-(8-oxa-3-azabicyclo[3.2.1]octane-3-carbonyl)-5-chloro-N-((1S,2R)-2-(6-fluoro-2,3-dimethylphenyl)-1-(5-oxo-4,5-dihydro-1,3,4-oxadiazol-2-yl)propyl)pyridine-2-sulfonamide]
6 | 340 nM | COC(=O)c1cc(Cl)cnc1S(=O)(=O)N[C@H](c1n[nH]c(=O)o1)[C@H](C)c1c(F)ccc(C)c1C [Example 118, methyl 5-chloro-2-(N-((1S,2R)-2-(6-fluoro-2,3-dimethylphenyl)-1-(5-oxo-4,5-dihydro-1,3,4-oxadiazol-2-yl)propyl)sulfamoyl)nicotinate]
7 | 450 nM | COC(=O)c1cc(Br)cnc1S(=O)(=O)N[C@H](c1n[nH]c(=O)o1)[C@H](C)c1c(F)ccc(C)c1C [Example 119, methyl 5-bromo-2-(N-((1S,2R)-2-(6-fluoro-2,3-dimethylphenyl)-1-(5-oxo-4,5-dihydro-1,3,4-oxadiazol-2-yl)propyl)sulfamoyl)nicotinate]
8 | 430 nM | COc1c(S(=O)(=O)N[C@H](c2n[nH]c(=O)o2)[C@H](C)c2c(F)ccc(C)c2C)ncc(Cl)c1C(C)OC(C)=O (stereo partly drawn) [Example 120, 1-(5-chloro-2-(N-((1S,2R)-2-(6-fluoro-2,3-dimethylphenyl)-1-(5-oxo-4,5-dihydro-1,3,4-oxadiazol-2-yl)propyl)sulfamoyl)-3-methoxypyridin-4-yl)ethylacetate]
9 | 110 nM | CC(=O)OC1(C(F)(F)F)CCOc2c(S(=O)(=O)N[C@H](c3n[nH]c(=O)o3)[C@H](C)c3c(F)ccc(C)c3C)ccc(Cl)c21 (stereo partly drawn) [Example 123, 5-chloro-8-(N-((1S,2R)-2-(6-fluoro-2,3-dimethylphenyl)-1-(5-oxo-4,5-dihydro-1,3,4-oxadiazol-2-yl)propyl)sulfamoyl)-4-(trifluoromethyl)chroman-4-ylacetate]
10 | 90 nM | Cc1c(Br)ccc(F)c1[C@@H](C)[C@H](NS(=O)(=O)c1ccc(Cl)c2c1OCCC2=O)c1n[nH]c(=O)o1 [Example 124, N-((1S,2R)-2-(3-bromo-6-fluoro-2-methylphenyl)-1-(5-oxo-4,5-dihydro-1,3,4-oxadiazol-2-yl)propyl)-5-chloro-4-oxochroman-8-sulfonamide]
11 | 100 nM | [2H]C([2H])([2H])C1(OC(C)=O)CCOc2c(S(=O)(=O)N[C@H](c3n[nH]c(=O)o3)[C@H](C)c3c(F)ccc(C)c3C)ccc(Cl)c21 (stereo partly drawn) [Example 129, 5-Chloro-8-(N-((1S,2R)-2-(6-fluoro-2,3-dimethylphenyl)-1-(5-oxo-4,5-dihydro-1,3,4-oxadiazol-2-yl)propyl)sulfamoyl)-4-methyl-d3-chroman-4-yl Acetate]
12 | 590 nM | COc1cc(Br)ccc1S(=O)(=O)N[C@H](c1n[nH]c(=O)o1)[C@H](C)c1cccc2c1CCC2 [Example 137, 4-bromo-N-((1S,2R)-2-(2,3-dihydro-1H-inden-4-yl)-1-(5-oxo-4,5-dihydro-1,3,4-oxadiazol-2-yl)propyl)-2-methoxybenzenesulfonamide]
13 | 210 nM | CC(=O)OC(C)c1nc(S(=O)(=O)N[C@H](c2n[nH]c(=O)o2)[C@H](C)c2cccc3c2CCC3)ccc1Cl (stereo partly drawn) [Example 142, 1-(3-chloro-6-(N-((1S,2R)-2-(2,3-dihydro-1H-inden-4-yl)-1-(5-oxo-4,5-dihydro-1,3,4-oxadiazol-2-yl)propyl)sulfamoyl)pyridin-2-yl)ethylacetate]
14 | 170 nM | COc1c(S(=O)(=O)N[C@H](c2n[nH]c(=O)o2)[C@H](C)c2c(F)ccc(C)c2C)ccc(Cl)c1C(C)OC(C)=O (stereo partly drawn) [Example 144, 1-(6-chloro-3-(N-((1S,2R)-2-(6-fluoro-2,3-dimethylphenyl)-1-(5-oxo-4,5-dihydro-1,3,4-oxadiazol-2-yl)propyl)sulfamoyl)-2-methoxyphenyl)ethyl acetate]
15 | 440 nM | Cc1ccc(F)c([C@@H](C)[C@H](NS(=O)(=O)c2ccc(Cl)cc2OCC(F)F)c2n[nH]c(=O)o2)c1C [Example 145, 4-chloro-2-(2,2-difluoroethoxy)-N-((1S,2R)-2-(6-fluoro-2,3-dimethylphenyl)-1-(5-oxo-4,5-dihydro-1,3,4-oxadiazol-2-yl)propyl)benzenesulfonamide]
16 | 260 nM | Cc1ccc(F)c([C@@H](C)[C@H](NS(=O)(=O)c2ccc(Cl)cc2OC(F)F)c2n[nH]c(=O)o2)c1C [Example 146, 4-chloro-2-(difluoromethoxy)-N-((1S,2R)-2-(6-fluoro-2,3-dimethylphenyl)-1-(5-oxo-4,5-dihydro-1,3,4-oxadiazol-2-yl)propyl)benzenesulfonamide]
17 | 270 nM | CC(=O)c1cc(Cl)ccc1S(=O)(=O)N[C@H](c1n[nH]c(=O)o1)[C@H](C)c1c(F)ccc(C)c1C [Example 147, 2-acetyl-4-chloro-N-((1S,2R)-2-(6-fluoro-2,3-dimethylphenyl)-1-(5-oxo-4,5-dihydro-1,3,4-oxadiazol-2-yl)propyl)benzenesulfonamide]
18 | 100 nM | COc1nc(Cl)ccc1S(=O)(=O)N[C@H](c1n[nH]c(=O)o1)[C@H](C)c1c(F)ccc(C)c1C [Example 148, 6-chloro-N-((1S,2R)-2-(6-fluoro-2,3-dimethylphenyl)-1-(5-oxo-4,5-dihydro-1,3,4-oxadiazol-2-yl)propyl)-2-methoxypyridine-3-sulfonamide]
19 | 410 nM | Cc1ccc(S(=O)(=O)N[C@H](c2n[nH]c(=O)o2)[C@H](C)c2c(F)ccc(C)c2C)cc1 [Example 151, N-((1S,2R)-2-(6-fluoro-2,3-dimethylphenyl)-1-(5-oxo-4,5-dihydro-1,3,4-oxadiazol-2-yl)propyl)-4-methylbenzenesulfonamide]
20 | 710 nM | Cc1ccc(F)c([C@@H](C)[C@H](NS(=O)(=O)c2cccc3[nH]ccc23)c2n[nH]c(=O)o2)c1C [Example 152, N-((1S,2R)-2-(6-fluoro-2,3-dimethylphenyl)-1-(5-oxo-4,5-dihydro-1,3,4-oxadiazol-2-yl)propyl)-1H-indole-4-sulfonamide]
21 | 110 nM | Cc1ccc(F)c([C@@H](C)[C@H](NS(=O)(=O)c2ccc(Cl)c3cccnc23)c2n[nH]c(=O)o2)c1C [Example 153, 5-chloro-N-((1S,2R)-2-(6-fluoro-2,3-dimethylphenyl)-1-(5-oxo-4,5-dihydro-1,3,4-oxadiazol-2-yl)propyl)quinoline-8-sulfonamide]

Row | SMILES | IC50
22 | Cc1ccc(F)c([C@@H](C)[C@H](NS(=O)(=O)c2ccc(Cl)c(C(=O)N3C4CCC3COC4)n2)c2n[nH]c(=O)o2)c1C [Example 116, 6-(3-oxa-8-azabicyclo[3.2.1]octane-8-carbonyl)-5-chloro-N-((1S,2R)-2-(6-fluoro-2,3-dimethylphenyl)-1-(5-oxo-4,5-dihydro-1,3,4-oxadiazol-2-yl)propyl)pyridine-2-sulfonamide] | 70 nM
